The results in this text go back to patent EP3345917A1, “ANTIPROTOZOAL COMPOUNDS” (Bacoba AG, priority 2017, dated 2018).

Non-standard residues stand in square brackets, D forms with d. Residues, ends and D or L forms follow the SMILES beside them. *: point of attachment. Adamantane1carbonyl = O=C(C12CC3CC(CC(C3)C1)C2)*; NH((S)CH(Me)CH2NMe2) = C[C@@H](CN(C)C)N*; Gly(octyl) = CCCCCCCC[C@H](N)C(=O)O; Oxazole4CO(2-Me) = Cc1nc(C(=O)*)co1; Thiophene2carbonyl = O=C(c1cccs1)*; X16 = COc1ccc2cc(C(=O)*)c(=O)oc2c1; X19 = O=C(c1ccnc2cc(Cl)ccc12)*; Aib = CC(C)(N)C(=O)O; Bz = O=C(c1ccccc1)*; βAla = NCCC(=O)O

Holding throughout (format): cell-based
Experiment [1] has as its system intracellular Leishmania donovani (L.don. InMac). The experiment can be described thus: Intracellular Leishmania donovani assay (L.don. InMac). To be noted: In vitro inhibition. An excerpt:
(§1) Tests were done in triplicate.

Experiment [2] deals with Axenically grown Leishmania donovani amastigotes (strain MHOM/ET/67/L82). Briefly: Axenic Leishmania donovani amastigote resazurin assay. To be noted: In vitro inhibition, read-out: L.don. ax. An outline of the steps: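 Strain MHOM/ET/67/L82 amastigotes grown axenically and tested in triplicate by resazurin assay. Plates developed 2-4 hours, fluorescence read at 536 nm excitation/588 nm emission and expressed as percentage of negative control.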
On the technique in general: The colour change of resazurin is a common sign of viable cells or microbes.

Experiment [3] relates to Trypanosoma brucei rhodesiense (STIB 900 strain). The experiment can be described thus: Alamar Blue assay against Trypanosoma brucei rhodesiense grown in axenic medium. Particulars: In vitro inhibition, read-out: T.b.rhod. In outline: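 T. b. rhodesiense STIB 900 cultured in axenic medium and exposed to samples in an Alamar Blue viability assay, run in triplicate. IC50 calculated from the readout; melarsoprol served as reference drug.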

Experiment [4] has as its system Trypanosoma cruzi trypomastigote forms (Tulahuen strain). The experiment can be described thus: Intracellular Trypanosoma cruzi assay in L6-cells, beta-galactosidase/CPRG readout. To be noted: In vitro inhibition, read-out: T.cruzi. An outline of the steps: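 L6 rat myoblasts infected with Tulahuen C2C4 LacZ T. cruzi; after incubation, CPRG/Nonidet substrate added and colour developed 2–6 h. Absorbance at 540 nm; IC50 calculated; triplicate tests.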

Experiment [5] deals with Plasmodium falciparum. Briefly: 3H-hypoxanthine incorporation assay against Plasmodium falciparum. Particulars: In vitro inhibition, read-out: P.falc NF5. The protocol: as §1
IC50 values were calculated by linear interpolation.

On to `CCCCCCCC[C@H](NC(=O)[C@@H]1CCCN1C(=O)c1ccccc1)C(=O)N[C@@H](CC(C)C)C(=O)NC(C)(C)C(=O)N[C@@H](CC(C)C)C(=O)N[C@@H](CC(C)C)C(=O)NC(C)(C)C(=O)NC(C)(C)C(=O)NCCC(=O)N[C@@H](C)CN(C)C` [Compound 5649, (2S)-2-{[(2S)-1-benzoylpyrrolidin-2-yl]formamido}-N-[(1S)-1-[(1-{[(1S)-1-{[(1S)-1-{[1-({1-[(2-{[(2S)-1-(dimethylamino)propan-2-yl]carbamoyl}ethyl)carbamoyl]-1-methylethyl}carbamoyl)-1-methylethyl]carbamoyl}-3-methylbutyl]carbamoyl}-3-methylbutyl]carbamoyl}-1-methylethyl)carbamoyl]-3-methylbutyl]decanamide] (Bz-P[Gly(octyl)]L[Aib]LL[Aib][Aib][βAla]-{NH((S)CH(Me)CH2NMe2)}), for which the IC50 in experiment [1] stood at 27.2 nM; in experiment [2] it was 3.5 nM; in experiment [3] it was 0.7 nM; in experiment [4], 8.8 nM; in experiment [5], 2.1 nM.

`CCCCCCCC[C@H](NC(=O)[C@@H]1CCCN1C(=O)c1ccnc2cc(Cl)ccc12)C(=O)N[C@@H](CC(C)C)C(=O)NC(C)(C)C(=O)N[C@@H](CC(C)C)C(=O)N[C@@H](CC(C)C)C(=O)NC(C)(C)C(=O)NC(C)(C)C(=O)NCCC(=O)N[C@@H](C)CN(C)C` [Compound 5768, (2S)-2-{[(2S)-1-(7-chloroquinoline-4-carbonyl)pyrrolidin-2-yl]formamido}-N-[(1S)-1-[(1-{[(1S)-1-{[(1S)-1-{[1-({1-[(2-{[(2S)-1-(dimethylamino)propan-2-yl]carbamoyl}ethyl)carbamoyl]-1-methylethyl}carbamoyl)-1-methylethyl]carbamoyl}-3-methylbutyl]carbamoyl}-3-methylbutyl]carbamoyl}-1-methylethyl)carbamoyl]-3-methylbutyl]decanamide] (X19-P[Gly(octyl)]L[Aib]LL[Aib][Aib][βAla]-{NH((S)CH(Me)CH2NMe2)}): the IC50 stood at 257 nM in experiment [1]; 33.5 nM in experiment [2]; 8.7 nM in experiment [3]; 373 nM in experiment [4]; 24.5 nM in experiment [5].

Turning to `CCCCCCCC[C@H](NC(=O)[C@@H]1CCCN1C(=O)c1cc2ccc(OC)cc2oc1=O)C(=O)N[C@@H](CC(C)C)C(=O)NC(C)(C)C(=O)N[C@@H](CC(C)C)C(=O)N[C@@H](CC(C)C)C(=O)NC(C)(C)C(=O)NC(C)(C)C(=O)NCCC(=O)N[C@@H](C)CN(C)C` [Compound 5769, (2S)-N-[(1S)-1-[(1-{[(1S)-1-{[(1S)-1-{[1-({1-[(2-{[(2S)-1-(dimethylamino)propan-2-yl]carbamoyl}ethyl)carbamoyl]-1-methylethyl}carbamoyl)-1-methylethyl]carbamoyl}-3-methylbutyl]carbamoyl}-3-methylbutyl]carbamoyl}-1-methylethyl)carbamoyl]-3-methylbutyl]-2-{[(2S)-1-(7-methoxy-2-oxo-2H-chromene-3-carbonyl)pyrrolidin-2-yl]formamido}decanamide] (X16-P[Gly(octyl)]L[Aib]LL[Aib][Aib][βAla]-{NH((S)CH(Me)CH2NMe2)}), the IC50 in experiment [1] turned out to be 216 nM; in experiment [2], 8.1 nM; in experiment [3] it was 2.8 nM; in experiment [4] it was 167 nM; in experiment [5], 5.3 nM.

Regarding `CCCCCCCC[C@H](NC(=O)[C@@H]1CCCN1C(=O)C12CC3CC(CC(C3)C1)C2)C(=O)N[C@@H](CC(C)C)C(=O)NC(C)(C)C(=O)N[C@@H](CC(C)C)C(=O)N[C@@H](CC(C)C)C(=O)NC(C)(C)C(=O)NC(C)(C)C(=O)NCCC(=O)N[C@@H](C)CN(C)C` [Compound 5770, (2S)-2-{[(2S)-1-(adamantane-1-carbonyl)pyrrolidin-2-yl]formamido}-N-[(1S)-1-[(1-{[(1S)-1-{[(1S)-1-{[1-({1-[(2-{[(2S)-1-(dimethylamino)propan-2-yl]carbamoyl}ethyl)carbamoyl]-1-methylethyl}carbamoyl)-1-methylethyl]carbamoyl}-3-methylbutyl]carbamoyl}-3-methylbutyl]carbamoyl}-1-methylethyl)carbamoyl]-3-methylbutyl]decanamide] (Adamantane1carbonyl-P[Gly(octyl)]L[Aib]LL[Aib][Aib][βAla]-{NH((S)CH(Me)CH2NMe2)}), the IC50 in experiment [1] came out at 338 nM; in experiment [2] it was 1 nM; in experiment [3], 0.6 nM; in experiment [4] it was 101 nM; in experiment [5], 3.3 nM.

On to `CCCCCCCC[C@H](NC(=O)[C@@H]1CCCN1C(=O)c1cccs1)C(=O)N[C@@H](CC(C)C)C(=O)NC(C)(C)C(=O)N[C@@H](CC(C)C)C(=O)N[C@@H](CC(C)C)C(=O)NC(C)(C)C(=O)NC(C)(C)C(=O)NCCC(=O)N[C@@H](C)CN(C)C` [Compound 5904, (2S)-N-[(1S)-1-[(1-{[(1S)-1-{[(1S)-1-{[1-({1-[(2-{[(2S)-1-(dimethylamino)propan-2-yl]carbamoyl}ethyl)carbamoyl]-1-methylethyl}carbamoyl)-1-methylethyl]carbamoyl}-3-methylbutyl]carbamoyl}-3-methylbutyl]carbamoyl}-1-methylethyl)carbamoyl]-3-methylbutyl]-2-{[(2S)-1-(thiophene-2-carbonyl)pyrrolidin-2-yl]formamido}decanamide] (Thiophene2carbonyl-P[Gly(octyl)]L[Aib]LL[Aib][Aib][βAla]-{NH((S)CH(Me)CH2NMe2)}), for which the IC50 worked out at 42500 nM in experiment [1]; 42500 nM in experiment [2]; 0.2 nM in experiment [3]; 36300 nM in experiment [4]; 32100 nM in experiment [5].

As to `CCCCCCCC[C@H](NC(=O)[C@@H]1CCCN1C(=O)c1coc(C)n1)C(=O)N[C@@H](CC(C)C)C(=O)NC(C)(C)C(=O)N[C@@H](CC(C)C)C(=O)N[C@@H](CC(C)C)C(=O)NC(C)(C)C(=O)NC(C)(C)C(=O)NCCC(=O)N[C@@H](C)CN(C)C` [Compound 5905, (2S)-N-[(1S)-1-[(1-{[(1S)-1-{[(1S)-1-{[1-({1-[(2-{[(2S)-1-(dimethylamino)propan-2-yl]carbamoyl}ethyl)carbamoyl]-1-methylethyl}carbamoyl)-1-methylethyl]carbamoyl}-3-methylbutyl]carbamoyl}-3-methylbutyl]carbamoyl}-1-methylethyl)carbamoyl]-3-methylbutyl]-2-{[(2S)-1-(2-methyl-1,3-oxazole-4-carbonyl)pyrrolidin-2-yl]formamido}decanamide] ({Oxazole4CO(2-Me)}-P[Gly(octyl)]L[Aib]LL[Aib][Aib][βAla]-{NH((S)CH(Me)CH2NMe2)}), the IC50 turned out to be 42400 nM in experiment [1]; 32000 nM in experiment [2]; 0.2 nM in experiment [3]; 42500 nM in experiment [4]; 26400 nM in experiment [5].
